Patent US9730446B2, “Herbicidal compositions comprising 4-amino-3-chloro-6-(4-chloro-2-fluoro-3-methoxyphenyl)pyridine-2-carboxylic acid or a derivative thereof and propyzamide” (Dow AgroSciences LLC, priority 2013, dated 2017)

How the values were obtained:
Test in all cases: Field trial, visual weed control in winter oilseed rape
Format in all cases: in vivo
[1] = test system: GERSS Geranium sp. (cranesbill)
Description: (§1) Multiple small plot research experiments were conducted to evaluate efficacy and tolerance of winter oilseed rape to compositions described herein. Typical small plots (2-4×4-10 meters (m)) were used in growers' fields under natural conditions with normal commercial cultural practices. Backpack sprayers were used to apply all treatments based on unit area. The methyl ester of formula (I) and propyzamide were tested alone and in combination at varying rates. […] Crop stage was at Growth Stage 39-50. Visual crop injury ratings were collected 32, 49, and 74 days after treatment. […] The reported values are means. […] The following abbreviations are used in Tables 2-4: • GERSS Geranium sp. (cranesbill) • POAAN Poa annua (annual bluegrass) • VERSS Veronica sp.

[2] = test system: VERSS Veronica sp. (speedwell)
Description: as §1

[3] = test system: POAAN Poa annua (annual bluegrass)
Description: as §1

SMILES: COC(=O)c1nc(-c2ccc(Cl)c(OC)c2F)cc(N)c1Cl [Cmpd I, methyl ester of 4-amino-3-chloro-6-(4-chloro-2-fluoro-3-methoxyphenyl)pyridine-2-carboxylic acid]
- % control rated visually, ob (observed) ([1]; Cmpd I 1.25 g ae/ha, 32 DAAA): 42.5%
- % control rated visually, ob (observed) ([1]; Cmpd I 1.25 g ae/ha, 58 DAAA): 62.5%
- % control rated visually, ob (observed) ([1]; Cmpd I 1.25 g ae/ha, 80 DAAA): 53.8%
- % control rated visually, ob (observed) ([1]; Cmpd I 2.5 g ae/ha, 32 DAAA): 42.5%
- % control rated visually, ob (observed) ([1]; Cmpd I 2.5 g ae/ha, 58 DAAA): 57.5%
- % control rated visually, ob (observed) ([1]; Cmpd I 2.5 g ae/ha, 80 DAAA): 67.5%
- % control rated visually, ob (observed) ([1]; Cmpd I 5 g ae/ha, 32 DAAA): 89.3%
- % control rated visually, ob (observed) ([1]; Cmpd I 5 g ae/ha, 58 DAAA): 77.5%
- % control rated visually, ob (observed) ([1]; Cmpd I 5 g ae/ha, 80 DAAA): 69.5%
- % control rated visually, ob (observed) ([1]; Cmpd I 7.5 g ae/ha, 32 DAAA): 91.3%
- % control rated visually, ob (observed) ([1]; Cmpd I 7.5 g ae/ha, 58 DAAA): 91.3%
- % control rated visually, ob (observed) ([1]; Cmpd I 7.5 g ae/ha, 80 DAAA): 99.8%
- % control rated visually, ob (observed) ([2]; Cmpd I 1.25 g ae/ha, 32 DAAA): 10.0%
- % control rated visually, ob (observed) ([2]; Cmpd I 1.25 g ae/ha, 80 DAAA): 80.0%
- % control rated visually, ob (observed) ([2]; Cmpd I 2.5 g ae/ha, 32 DAAA): 26.3%
- % control rated visually, ob (observed) ([2]; Cmpd I 2.5 g ae/ha, 80 DAAA): 97.5%
- % control rated visually, ob (observed) ([2]; Cmpd I 5 g ae/ha, 32 DAAA): 45.0%
- % control rated visually, ob (observed) ([2]; Cmpd I 5 g ae/ha, 80 DAAA): 100.0%
- % control rated visually, ob (observed) ([2]; Cmpd I 7.5 g ae/ha, 32 DAAA): 81.3%
- % control rated visually, ob (observed) ([2]; Cmpd I 7.5 g ae/ha, 80 DAAA): 100.0%
- % control rated visually, ob (observed) ([3]; Cmpd I 1.25 g ae/ha, 32 DAAA): 7.5%
- % control rated visually, ob (observed) ([3]; Cmpd I 1.25 g ae/ha, 58 DAAA): 11.3%
- % control rated visually, ob (observed) ([3]; Cmpd I 1.25 g ae/ha, 80 DAAA): 16.3%
- % control rated visually, ob (observed) ([3]; Cmpd I 2.5 g ae/ha, 32 DAAA): 10.0%
- % control rated visually, ob (observed) ([3]; Cmpd I 2.5 g ae/ha, 58 DAAA): 15.0%
- % control rated visually, ob (observed) ([3]; Cmpd I 2.5 g ae/ha, 80 DAAA): 15.0%
- % control rated visually, ob (observed) ([3]; Cmpd I 5 g ae/ha, 32 DAAA): 6.3%
- % control rated visually, ob (observed) ([3]; Cmpd I 5 g ae/ha, 58 DAAA): 12.5%
- % control rated visually, ob (observed) ([3]; Cmpd I 5 g ae/ha, 80 DAAA): 6.3%
- % control rated visually, ob (observed) ([3]; Cmpd I 7.5 g ae/ha, 32 DAAA): 28.8%
- % control rated visually, ob (observed) ([3]; Cmpd I 7.5 g ae/ha, 58 DAAA): 28.8%
- % control rated visually, ob (observed) ([3]; Cmpd I 7.5 g ae/ha, 80 DAAA): 18.8%
